The text below walks through data of article PMC3365106, “Expression of Transient Receptor Potential Ankyrin 1 (TRPA1) and Its Role in Insulin Release from Rat Pancreatic Beta Cells” (PLoS ONE, 2012).

This experiment concerns the target transient receptor potential ankyrin 1 (TRPA1) (Rattus norvegicus, UniProt Q6RI86). Nature of the experiment: whole-cell patch clamp in primary rat beta cells (MG in pipette); also currents in TRPA1-transfected HEK293T cells and siRNA-sensitive Ca2+ influx. The class given is cell-based. Background: The patch-clamp technique gives a direct electrical read-out from membranes.

Chain of transient receptor potential ankyrin 1 (TRPA1) (Q6RI86 whole entry): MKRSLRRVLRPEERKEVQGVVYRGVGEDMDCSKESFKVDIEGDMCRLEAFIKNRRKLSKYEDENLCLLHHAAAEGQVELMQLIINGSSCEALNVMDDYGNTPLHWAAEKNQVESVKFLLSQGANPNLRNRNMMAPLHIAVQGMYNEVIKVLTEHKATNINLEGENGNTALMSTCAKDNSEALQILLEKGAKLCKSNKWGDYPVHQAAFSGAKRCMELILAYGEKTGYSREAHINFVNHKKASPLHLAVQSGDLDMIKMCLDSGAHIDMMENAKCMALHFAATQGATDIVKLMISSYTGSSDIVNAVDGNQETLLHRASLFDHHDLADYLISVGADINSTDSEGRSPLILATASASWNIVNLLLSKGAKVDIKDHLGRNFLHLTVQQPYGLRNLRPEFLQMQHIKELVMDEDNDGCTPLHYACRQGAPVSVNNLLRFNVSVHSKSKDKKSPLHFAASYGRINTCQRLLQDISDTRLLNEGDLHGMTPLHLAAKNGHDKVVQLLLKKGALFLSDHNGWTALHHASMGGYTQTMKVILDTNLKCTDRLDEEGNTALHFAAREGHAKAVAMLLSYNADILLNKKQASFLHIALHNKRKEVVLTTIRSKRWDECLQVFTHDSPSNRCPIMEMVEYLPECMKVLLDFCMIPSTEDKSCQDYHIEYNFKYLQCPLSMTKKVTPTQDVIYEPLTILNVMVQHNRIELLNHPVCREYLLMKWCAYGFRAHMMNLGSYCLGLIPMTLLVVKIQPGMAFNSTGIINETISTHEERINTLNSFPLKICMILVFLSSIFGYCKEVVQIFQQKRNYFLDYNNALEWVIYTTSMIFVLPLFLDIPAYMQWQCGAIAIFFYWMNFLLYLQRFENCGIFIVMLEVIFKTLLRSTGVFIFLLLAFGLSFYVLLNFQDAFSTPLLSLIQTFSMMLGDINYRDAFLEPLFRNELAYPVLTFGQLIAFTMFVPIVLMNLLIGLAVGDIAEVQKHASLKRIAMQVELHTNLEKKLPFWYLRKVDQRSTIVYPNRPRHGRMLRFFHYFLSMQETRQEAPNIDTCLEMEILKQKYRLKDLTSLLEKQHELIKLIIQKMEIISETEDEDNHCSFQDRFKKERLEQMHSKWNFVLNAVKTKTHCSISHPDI

Usually EC50 stands for the concentration needed to bring the measured effect to its halfway point. A low value points to an effect from little substance. With `CC(=O)C=O` [MG, methylglyoxal], the EC50 came out at 590 nM.
